# Source: patent publication US20050214328A1, “Methods of using and compositions comprising immunomodulatory compounds for the treatment and management of skin diseases or disorders” (priority 2004, published 2005)
# Several values for one entry are separate records, joined by “and”; a condition that tells them apart may be missing. Equal values may be shown once.
# Experiments:
# [1] = system: IL10; experiment: Production of anti-inflammatory cytokine IL10 by PBMC; format: cell-based; settings: for production of the anti-inflammatory cytokine IL10: PBMC; for secretion of the anti-inflammatory cytokine IL10: in vitro
# Description: (§1) The pharmacological properties of 3-(4-amino-1-oxo-1,3-dihydro-isoindol-2-yl)-piperidine-2,6-dione or 4-(amino)-2-(2,6-dioxo-(3-piperidyl))-isoindoline-1,3-dione, including activity comparisons with thalidomide, are characterized in in vitro studies. Studies examined the effects of 3-(4-amino-1-oxo-1,3-dihydro-isoindol-2-yl)-piperidine-2,6-dione, 4-(amino)-2-(2,6-dioxo-(3-piperidyl))-isoindoline-1,3-dione or thalidomide on the production of various cytokines.
# [2] = system: IL6; experiment: LPS-stimulated production of IL6 by PBMC; format: cell-based; settings: for secretion of the pro-inflammatory cytokine IL6: in vitro
# Description: as §1
# [3] = system: T-cells; experiment: Proliferation of T-cells following primary induction by T-cell receptor (TCR) activation; format: cell-based; settings: in vitro
# Description: as §1
# [4] = system: IFN-γ; experiment: IFN-γ production following TCR activation of T-cells; format: cell-based; settings: in vitro
# Description: as §1
# [5] = system: wrinkles; experiment: Clinical study in patients with wrinkles; format: in vivo, human; settings: oral about 5 mg daily, continuous
# Method: (§2) 3-(4-Amino-1-oxo-1,3-dihydro-isoindol-2-yl)-piperidine-2,6-dione or 4-(amino)-2-(2,6-dioxo-(3-piperidyl))-isoindoline-1,3-dione is administered in an amount of from about 1 to about 25 mg per day to reduce or correct wrinkles of patients. For example, clinical studies are performed for 3-(4-amino-1-oxo-1,3-dihydro-isoindol-2-yl)-piperidine-2,6-dione in patients with wrinkles. Patients receive continuous treatment with the compound at a oral dose of about 5 mg daily.
# [6] = system: TNF-α mRNA; experiment: Degradation of TNF-α mRNA; format: cell-based; settings: in vitro
# Description: as §1
# [7] = system: TNF-α; experiment: Inhibition of TNF-α production following LPS-stimulation of human whole blood; format: cell-based; settings: read-out: IC50 for inhibiting production of TNF-α following LPS-stimulation of human whole blood
# Description: (§3) Inhibitions of TNF-α production following LPS-stimulation of human PBMC and human whole blood by an immunomodulatory compound such as 3-(4-amino-1-oxo-1,3-dihydro-isoindol-2-yl)-piperidine-2,6-dione, 4-(amino)-2-(2,6-dioxo-(3-piperidyl))-isoindoline-1,3-dione or thalidomide were investigated in vitro.
# [8] = system: IL2; experiment: IL2 production following TCR activation of PBMC; format: cell-based; settings: in vitro
# Description: as §1
# [9] = system: acne; experiment: Clinical study in acne; format: in vivo, human; settings: oral about 5 mg daily, continuous
# Method: 3-(4-Amino-1-oxo-1,3-dihydro-isoindol-2-yl)-piperidine-2,6-dione or 4-(amino)-2-(2,6-dioxo-(3-piperidyl))-isoindoline-1,3-dione is administered in an amount of from about 1 to about 25 mg per day to treat acne. Patients receive continuous treatment with the compound at a oral dose of about 5 mg daily.
# [10] = system: IL1β; experiment: LPS-stimulated production of IL1β by PBMC; format: cell-based; settings: for secretion of the pro-inflammatory cytokine IL1β: in vitro
# Description: as §1
# [11] = system: actinic or senile keratoses; experiment: Clinical study in patients with actinic or senile keratoses; format: in vivo, human; settings: oral 25 mg daily, continuous, baseline vs after eight weeks, FIG. 1
# Method: as §2, with “patients with keratoses for eight weeks, and the responses are subsequently assessed.” for “reduce or correct wrinkles of patients.”, “actinic or senile keratoses.” for “wrinkles.”, “25” for “about 5”
# [12] = system: TNF-α; experiment: Inhibition of TNF-α production following LPS-stimulation of human PBMC; format: cell-based; settings: for IC50: human PBMC, LPS, read-out: IC50 for inhibiting production of TNF-α following LPS-stimulation of PBMC; for secretion of the pro-inflammatory cytokine TNF-α: in vitro
# Description: as §1, §3
# [13] = system: cardiovascular and respiratory functions; settings: dog, in vivo; for arterial blood pressure: 2 mg/kg
# Method: In addition, a safety pharmacology study of 3-(4-amino-1-oxo-1,3-dihydro-isoindol-2-yl)-piperidine-2,6-dione or 4-(amino)-2-(2,6-dioxo-(3-piperidyl))-isoindoline-1,3-dione was conducted in dogs. The effects of the compound on cardiovascular and respiratory functions were examined in anesthetized dogs. One group of Beagle dogs (2/sex/group) received three doses of vehicle only and the other received three ascending doses of 2, 10 and 20 mg/kg of the compound. […] The cardiovascular and respiratory changes induced by the compound were minimal at all doses when compared to the vehicle control group.
# [14] = cited from earlier work; for interconversion in acetone: acetone (and other anhydrous) solvent systems
structure (smiles),measurement,setting,value
"Nc1cccc2c1CN(C1CCC(=O)NC1=O)C2=O (stereo not shown) [3-(4-amino-1-oxo-1,3-dihydro-isoindol-2-yl)-piperidine-2,6-dione]",production of the anti-inflammatory cytokine IL10,[1],increased
same,secretion of the anti-inflammatory cytokine IL10,[1],increased
same,LPS-stimulated production of IL6 by PBMC,[2],dose-dependent inhibition
same,secretion of the pro-inflammatory cytokine IL6,[2],markedly inhibited
same,T-cell proliferation,[3],induced
same,IFN-γ production,[4],induced
same,clinical response in patients with wrinkles,[5],remarkable clinical benefit
same,degradation of TNF-α mRNA,[6],enhanced
same,IC50,[7],~480 nM and 0.104 µg/mL
same,IL2 production,[8],induced
same,acne (size and number of visible cutaneous infections and/or pimples),[9],significant improvements
same,LPS-stimulated production of IL1β by PBMC,[10],dose-dependent inhibition
same,secretion of the pro-inflammatory cytokine IL1β,[10],markedly inhibited
same,clinical response in patients with actinic or senile keratoses,[11],remarkable clinical benefit
same,LPS-stimulated production of TNF-α by PBMC,[12],dose-dependent inhibition
same,IC50,[12],~100 nM and 0.0259 µg/mL
same,secretion of the pro-inflammatory cytokine TNF-α,[12],markedly inhibited
same,"deviations in femoral blood flow, respiratory parameters and QTc interval",[13],not considered treatment-related
same,arterial blood pressure,[13],small transient increase
"Nc1cccc2c1C(=O)N(C1CCC(=O)NC1=O)C2=O (stereo not shown) [4-(amino)-2-(2,6-dioxo(3-piperidyl))-isoindoline-1,3-dione]",production of the anti-inflammatory cytokine IL10,[1],increased
same,secretion of the anti-inflammatory cytokine IL10,[1],increased
same,LPS-stimulated production of IL6 by PBMC,[2],dose-dependent inhibition
same,secretion of the pro-inflammatory cytokine IL6,[2],markedly inhibited
same,T-cell proliferation,[3],induced
same,IFN-γ production,[4],induced
same,degradation of TNF-α mRNA,[6],enhanced
same,IC50,[7],~25 nM and 0.00683 µg/mL
same,IL2 production,[8],induced
same,acne (size and number of visible cutaneous infections and/or pimples),[9],significant improvements
same,LPS-stimulated production of IL1β by PBMC,[10],dose-dependent inhibition
same,secretion of the pro-inflammatory cytokine IL1β,[10],markedly inhibited
same,LPS-stimulated production of TNF-α by PBMC,[12],dose-dependent inhibition
same,IC50,[12],~24 nM and 0.00655 µg/mL
same,secretion of the pro-inflammatory cytokine TNF-α,[12],markedly inhibited
same,"deviations in femoral blood flow, respiratory parameters and QTc interval",[13],not considered treatment-related
same,arterial blood pressure,[13],small transient increase
"O=C1CCC(N2C(=O)c3ccccc3C2=O)C(=O)N1 (stereo not shown) [Thalidomide, thalidomide, reference compound]",IC50,[12],50.1 µg/mL
"Nc1cccc2c1CN(C1CCC(=O)NC1=O)C2=O (stereo not shown) [Form B, 3-(4-amino-1-oxo-1,3 dihydro-isoindol-2-yl)-piperidene-2,6-dione]",form conversion upon heating,[14]; 175° C. for about five minutes,convert to Form F
same,interconversion in acetone,[14],converts to other forms
same,form stability / interconversion in aqueous solvent systems,[14]; aqueous solvent systems,converts to Form E
"Nc1cccc2c1CN(C1CCC(=O)NC1=O)C2=O (stereo not shown) [Form D, 3-(4-amino-1-oxo-1,3 dihydro-isoindol-2-yl)-piperidene-2,6-dione]",form conversion at higher relative humidities,[14],convert to Form B
"Nc1cccc2c1CN(C1CCC(=O)NC1=O)C2=O (stereo not shown) [Form E, 3-(4-amino-1-oxo-1,3 dihydro-isoindol-2-yl)-piperidene-2,6-dione]",interconversion in THF,[14]; THF solvent system,Form G
same,form conversion upon heating (desolvation),[14]; about 125° C. for about five minutes,convert to Form B
same,interconversion in acetone,[14],convert to Form C
"Nc1cccc2c1CN(C1CCC(=O)NC1=O)C2=O (stereo not shown) [Form C, 3-(4-amino-1-oxo-1,3 dihydro-isoindol-2-yl)-piperidene-2,6-dione]",hygroscopicity,[14]; below about 85% RH,not hygroscopic
same,form conversion at higher relative humidities,[14],can convert to Form B
